Laboratory results published in patent US20260190612A1, “LIGHT-EMITTING DEVICE” (SEMICONDUCTOR ENERGY LABORATORY CO., LTD., priority 2022, published 2026).
Values after ≈ are worked out from the molar mass of the structure shown.

Assay: solubility of the first organic compound in water

Row | SMILES | solubility [µg/mL]
1 | c1ccc2c(c1)-c1ccccc1C21c2cc(N3CCCN4CCCN=C43)ccc2-c2ccc(N3CCCN4CCCN=C43)cc21 [2,7hpp2SF, 1,1′-(9,9′-spirobi[9H-fluorene]-2,7-diyl)bis(1,3,4,6,7,8-hexahydro-2H-pyrimido[1,2-a]pyrimidine)] | 230 to 390 (≈ 389 to 660 µM)
2 | c1ccc2c(c1)-c1ccccc1C21c2ccccc2-c2ccc(N3CCCN4CCCN=C43)cc21 [2hppSF, 1-(9,9′-spirobi[9H-fluoren]-2-yl)-1,3,4,6,7,8-hexahydro-2H-pyrimido[1,2-a]pyrimidine] | 18 to 22 (≈ 39.7 to 48.5 µM)
3 | CC(C)(C)c1ccc2c(c1)C1(c3ccccc3-c3ccc(N4CCCN5CCCN=C54)cc31)c1cc(C(C)(C)C)ccc1-2 [2′,7′tBu-2hppSF, 1-(2′,7′-di-tert-butyl-9,9′-spirobi[9H-fluoren]-2-yl)-1,3,4,6,7,8-hexahydro-2H-pyrimido[1,2-a]pyrimidine] | < 2.3
